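Interpolation was linear, between the two tested concentrations surrounding the appropriate level; five concentrations were tested over 48 hours in 96-well plates. Here, GI50 denotes the concentration required for 50% inhibition of growth.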 Active and inactive are the calls of the source. Rule as the data show it: active = GI50 up to about 1.1 µM and inactive = higher. Starred links: 1 amine or outer side, 2 acyl side, 3 side chain; linkers in the order of their positions; H or OH if unused. Non-standard residues stand in square brackets, D forms with d. Residues, ends and D or L forms follow the SMILES beside them. *: point of attachment. X47 = CCC(=O)CC1CC(C)CC(C(=O)[*:2])N1[*:1]; X46 = CCCCCCCCC(C)C(=O)*; Aib = CC(C)(N)C(=O)O; X48 = CC(CN(C)CCO)N*
Tests used:
Assay in all cases: DTP human tumour cell line panel, 48 h
[1] = test system: DMS-273
[2] = test system: HOP-18
[3] = test system: KM-20L2
[4] = test system: LXFL 529
[5] = test system: MDA-MB-231
[6] = test system: MDA-N
[7] = test system: NCI/ADR-RES
[8] = test system: XF498

SMILES | GI50 [1] | GI50 [2] | GI50 [3] | GI50 [4] | GI50 [5] | GI50 [6] | GI50 [7] | GI50 [8]
Cc1ccccc1NC(=O)c1nc(S)nc(N)c1-c1ccccc1C | > 100 µM (inactive) | > 100 µM (inactive) | > 100 µM (inactive) | > 100 µM (inactive) |  |  |  | 
Cc1ccc(Oc2ccc(C(=O)c3cccc(C(=O)c4ccc(Oc5ccc(C)cc5)cc4)n3)cc2)cc1 | > 100 µM (inactive) | > 100 µM (inactive) | > 100 µM (inactive) | > 100 µM (inactive) |  |  |  | 
CC(C)(C)OC(=O)CC(NC(=O)OC(C)(C)C)C(=O)NC(C(=O)O)C(O)c1ccccc1 (stereo not given) |  |  |  |  | 65.2 µM (inactive) | > 100 µM (inactive) | > 100 µM (inactive) | 
O=S(=O)(O)c1cc(/N=N/c2c(O)ccc3ccccc23)cc2c(S(=O)(=O)O)cccc12 |  |  |  |  | > 100 µM (inactive) |  | > 100 µM (inactive) | 
C[n+]1c2ccccc2c(NCC(=O)O)c2ccccc21 | > 100 µM (inactive) | > 100 µM (inactive) | > 100 µM (inactive) | > 100 µM (inactive) |  |  |  | 
c1ccc(-c2ccc(-c3ccc(C4=NCCN4)cc3)o2)cc1 |  |  |  |  | 2 µM (inactive) |  | 4.3 µM (inactive) | 
O=C1/C(=C\c2cccc(Oc3ccccc3)c2)SC(c2ccccc2)N1c1cc(Cl)ccc1Cl (stereo not given) |  |  |  |  | 32.4 µM (inactive) | 18.4 µM (inactive) | 42.6 µM (inactive) | 
Cc1nnc2nc(-c3ccc(Cl)cc3Cl)cc(-c3ccc(Cl)cc3)n12 |  |  |  |  | 47.5 µM (inactive) | > 100 µM (inactive) | 87.5 µM (inactive) | 
CC(=O)/C(=C/NC(=S)Nc1ccc(Cl)c(Cl)c1)C(=O)Nc1ccccc1C |  |  |  |  | 27.8 µM (inactive) | 25.3 µM (inactive) | 18.7 µM (inactive) | 
CCCNC(=O)NNC(=O)c1c[nH]c2nc(C)ccc2c1=O |  |  |  |  | > 100 µM (inactive) | > 100 µM (inactive) | > 100 µM (inactive) | 
N#CC[C@@H](O)COc1ccccc1 |  |  |  |  | > 100 µM (inactive) | > 100 µM (inactive) |  | 
COc1c(CCl)cc(-c2cc(=O)c3ccccc3s2)cc1CCl |  |  |  |  | 2.76 µM (inactive) | 6.08 µM (inactive) |  | 
COC(=O)/C=C/c1ccc2c(c1)CC1(Cc3ccccc3C1)C2 |  |  |  |  | > 100 µM (inactive) | 87.5 µM (inactive) | > 100 µM (inactive) | 
COc1cc(OC)cc(Oc2nc3ccc(C(F)(F)F)cc3nc2-c2ccccc2)c1 |  |  |  |  | > 100 µM (inactive) | > 100 µM (inactive) | > 100 µM (inactive) | 
Cc1nc2ccc(F)cc2c2c1CCO2 |  |  |  |  | 20.1 µM (inactive) | 27.7 µM (inactive) | > 100 µM (inactive) | 
CN(c1ccc(Cl)cc1)S(=O)(=O)c1ccc([N+](=O)[O-])cc1 |  |  |  |  | > 100 µM (inactive) | > 100 µM (inactive) | > 100 µM (inactive) | 
O=C(c1ccccc1)c1c(CC(O)c2ccccc2)n(C(=O)c2ccccc2)c2ccccc12 (stereo not given) | 43 µM (inactive) |  | 55.8 µM (inactive) | 39.5 µM (inactive) |  |  |  | > 100 µM (inactive)
CO[C@H]1C[C@H](O[C@H]2CC[C@@]3(C)[C@H](CC[C@@H]4[C@@H]3CC[C@]3(C)[C@@H](C5=CC(=O)OC5)CC[C@]43O)C2)O[C@H](C)[C@H]1O |  |  |  |  | 0.0498 µM (active) | < 0.01 µM (active) | < 0.01 µM (active) | 
O=C1N=CN=C2C=CC(Cl)=C(I)C12 (stereo not given) | 73.8 µM (inactive) |  | > 100 µM (inactive) | > 100 µM (inactive) |  |  |  | 51.1 µM (inactive)
CC(=NNC(=S)Nc1ccccc1C)c1cccc(C(C)=NNC(=S)Nc2ccccc2C)n1 |  |  |  |  |  | > 100 µM (inactive) | 18.6 µM (inactive) | 
COc1ccc(N2C(=O)C(Cl)C2c2cc3cc(Br)ccc3nc2Cl)cc1 (stereo not given) |  |  |  |  | 4.57 µM (inactive) | 5.31 µM (inactive) | 5.41 µM (inactive) | 
CCCCCCCCCCCCOCCCOP(=O)([O-])OCC[N+](C)(C)C | 12.9 µM (inactive) | 32.7 µM (inactive) | 17 µM (inactive) |  | 11.3 µM (inactive) | 13 µM (inactive) | > 81.1 µM (inactive) | 37.7 µM (inactive)
O=C(O)c1nc(-c2ccc(Cl)c(Cl)c2)nc2ccc(Cl)cc12 | 44.7 µM (inactive) |  | > 100 µM (inactive) | > 100 µM (inactive) |  |  |  | 
O=[N+]([O-])C1C2C=CC(C2)[C@H]1c1ccc(Cl)cc1Cl (stereo not given in full) | 46.5 µM (inactive) |  |  | 39.4 µM (inactive) |  |  |  | 43.7 µM (inactive)
COc1ccc(C2=C(OC(C)=O)c3cccn3-c3ccccc3S2)cc1 |  |  |  |  | 0.728 µM (active) | 0.34 µM (active) |  | 
CC(=O)OCCOCn1cnc2c(Cl)nc(Cl)nc21 |  |  |  |  | 15.3 µM (inactive) | 17.4 µM (inactive) | 24.1 µM (inactive) | 
O=C(CCc1cccc(O)c1)NCCCNC(=O)CCc1cccc(O)c1 |  |  |  |  | > 100 µM (inactive) | > 100 µM (inactive) | > 100 µM (inactive) | 
CCCCCCCCC(C)C(=O)N1CCCC1C(=O)N1C(CC(=O)CC)CC(C)CC1C(=O)NC(C)C(=O)NC(C)(C)C(=O)NC(C)(C)C(=O)NC(C(=O)NC(C)C(=O)NC(C)(C)C(=O)NC(C)(C)C(=O)NC(C)CN(C)CCO)C(C)CC (stereo not given) (X46-P[X47]A[Aib][Aib]IA[Aib][Aib]-X48; configuration not given here) |  |  |  |  | 0.56 µM (active) | 1.17 µM (inactive) | 0.435 µM (active) | 
COc1cc(C/C=C/c2ccccc2)c(OC)cc1O [VIOLASTYRENE] |  |  |  |  | 15.1 µM (inactive) | 17.9 µM (inactive) | 26.5 µM (inactive) | 

— ChEMBL document CHEMBL1201862, “PubChem BioAssay data set” (2004)
